Data as given in patent US20100323990A1, “SHIP 1 MODULATOR PRODRUGS” (THE UNIVERSITY OF BRITISH COLUMBIA, priority 2006, published 2010).

Key:
J774.1a macrophage cells = assay: Macrophage TNF-α NO assay (Assay 3), Griess reagent; format: cell-based; conditions: 10 μg/ml test compound, LPS, supernatants after 24 hr; note: key: a ‘+’ indicates a positive result for desired activity; a ‘−’ indicates a negative result for desired activity
How it was run: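 J774.1a macrophages pretreated 40 min with 10 μg/mL compound, then LPS (100 ng/mL for TNF-α); TNF-α by ELISA in supernatants at 2 and 5 h, NO by Griess at 24 h. Mast cells IgE-loaded (anti-DNP), compound 30 min, DNP-HSA challenge; calcium flux by fura-2 spectrofluorometry, signalling by immunoblot.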

[1] = test system: CD1 mice sensitized to the hapten DNP; assay: Mouse acute cutaneous anaphylaxis model (Assay 5); format: in vivo; conditions: for Assay 5: Mouse acute cutaneous anaphylaxis model, desired activity: topical on ear, DNFB challenge, MPO activity
plasma TNFα = assay: Mouse endotoxemia model (Assay 6), plasma TNFα by ELISA; format: in vivo, mice; conditions: for Assay 6: Mouse endotoxemia model, desired activity: oral, 30 min prior to IP 2 mg/kg LPS, plasma TNFα 2 hrs later
Description: Assay 1) In vitro testing in a SHIP enzyme assay. Test compounds were dissolved in a suitable solvent (e.g. EtOH, DMSO and others) and diluted into aqueous buffer (20 mM Tris HCl, pH 7.5 and 10 mM MgCl2). SHIP enzyme assays were performed in 96-well microtitre plates with 10 ng of enzyme/well in a total volume of 25 μL of 20 mM Tris HCl, pH 7.5 and 10 mM MgCl2. SHIP enzyme was incubated with test extracts (provided in solvent) or vehicle for 15 min at 23° C. before the addition of 100 μM inositol-1,3,4,5-tetrakisphosphate (Echelon Biosciences Inc, Salt Lake City, Utah). After 20 min at 37° C. and the amount of inorganic phosphate released assessed by the addition of Malachite Green reagent and absorbance measurement at 650 nm. Assay 2) Macrophage TNF-α production. J774.1a macrophage cells were treated with 10 μg/mL of test compound dissolved in solvent (e.g. cyclodextran) for 40 minutes prior to the addition of 100 ng/mL LPS. Culture supernatants were collected after 2 hr and 5 hr for TNF-α determination by ELISA. Assay 3) Macrophage TNF-α NO assay. J774.1a macrophage cells were treated with 10 μg/ml of test compound dissolved in solvent for 40 minutes prior to the addition of LPS. Culture supernatants were collected after 24 hr. for determination of NO concentration using the Griess reagent. Assay 4) Stimulation of mast cells by FcεRI crosslinking. Mast cells were pre-loaded overnight in BMMC medium lacking IL-3 with 0.1 μg/ml anti-DNP IgE (SPE-7, Sigma, Oakville, Ont). For calcium flux measurements, cells were incubated with 2 μM fura 2-acetoxymethyl ester (Molecular Probes, Eugene, Oreg.) in Tyrode's buffer at 23° C. for 45 min. Cells were then washed and incubated in the presence of the test compound 30 min prior to stimulation with the indicated concentration of DNP-human serum albumin (DNP-HSA). Calcium influx was monitored by spectrofluorometry as described previously. For analysis of intracellular signaling, cells were pre-loaded with anti-DNP IgE as above, pre-treated with the test compound for 30 min at 37° C. and stimulated with 20 ng/ml DNP-HSA for 5 min. Total cell lysates were then prepared and analyzed for phospho-PKB, phospho-p38^MAPK, phospho-MAPK, Grb-2 (Cell Signalling, Mississauga, Ont) and SHIP^6 by immunoblot analysis. Assay 5) Mouse acute cutaneous anaphylaxis model. 6-8 week old CD1 mice (University of British Columbia Animal Facility, Vancouver, BC) were sensitized to the hapten DNP by cutaneous application of 25 μL of 0.5% dinitrofluorobenzene (DNFB) (Sigma, Oakville, Ont) in acetone to the shaved abdomen of mice for two consecutive days. 24 hrs later, test substances (dissolved in 10 μL of 1:2 DMSO:MeOH) were painted on the right ear while the left ear received vehicle control. 30 min after drug application, DNFB was applied to both ears to induce mast cell degranulation. A 6 mm punch was taken from the ear and immediately frozen on dry ice for subsequent determination of neutrophil myeloperoxidase (MPO) activity. Assay 6) Mouse endotoxemia model. […] The ability of SHIP activators to reduce tumor cell survival was assessed in MM cell lines treated with the test compound. The lines OPM1, OPM2, MM.1S and RPMI 8226 were plated at a density of 1×10^5 cells/mL in 200 μL of medium with various concentrations of the test compound, and viable cell numbers were determined on day 3 and day 5 by trypan blue exclusion. […]

MM cell lines = assay: In vitro Multiple Myeloma (MM) assay (Assay 7); format: cell-based; conditions: for Assay 7: In vitro Multiple Myeloma (MM) assay, desired activity: viable cell number by trypan blue, [3H]-thymidine; for Assay 7: In vitro Multiple Myeloma (MM) assay, desired activity: key: a ‘+’ indicates a positive result for desired activity; a ‘−’ indicates a negative result for desired activity
Description: Assay 1) In vitro testing in a SHIP enzyme assay. Test compounds were dissolved in a suitable solvent (e.g. EtOH, DMSO and others) and diluted into aqueous buffer (20 mM Tris HCl, pH 7.5 and 10 mM MgCl2). SHIP enzyme assays were performed in 96-well microtitre plates with 10 ng of enzyme/well in a total volume of 25 μL of 20 mM Tris HCl, pH 7.5 and 10 mM MgCl2. SHIP enzyme was incubated with test extracts (provided in solvent) or vehicle for 15 min at 23° C. before the addition of 100 μM inositol-1,3,4,5-tetrakisphosphate (Echelon Biosciences Inc, Salt Lake City, Utah). After 20 min at 37° C. and the amount of inorganic phosphate released assessed by the addition of Malachite Green reagent and absorbance measurement at 650 nm. Assay 2) Macrophage TNF-α production. J774.1a macrophage cells were treated with 10 μg/mL of test compound dissolved in solvent (e.g. cyclodextran) for 40 minutes prior to the addition of 100 ng/mL LPS. Culture supernatants were collected after 2 hr and 5 hr for TNF-α determination by ELISA. Assay 3) Macrophage TNF-α NO assay. J774.1a macrophage cells were treated with 10 μg/ml of test compound dissolved in solvent for 40 minutes prior to the addition of LPS. Culture supernatants were collected after 24 hr. for determination of NO concentration using the Griess reagent. Assay 4) Stimulation of mast cells by FcεRI crosslinking. Mast cells were pre-loaded overnight in BMMC medium lacking IL-3 with 0.1 μg/ml anti-DNP IgE (SPE-7, Sigma, Oakville, Ont). For calcium flux measurements, cells were incubated with 2 μM fura 2-acetoxymethyl ester (Molecular Probes, Eugene, Oreg.) in Tyrode's buffer at 23° C. for 45 min. Cells were then washed and incubated in the presence of the test compound 30 min prior to stimulation with the indicated concentration of DNP-human serum albumin (DNP-HSA). Calcium influx was monitored by spectrofluorometry as described previously. For analysis of intracellular signaling, cells were pre-loaded with anti-DNP IgE as above, pre-treated with the test compound for 30 min at 37° C. and stimulated with 20 ng/ml DNP-HSA for 5 min. Total cell lysates were then prepared and analyzed for phospho-PKB, phospho-p38^MAPK, phospho-MAPK, Grb-2 (Cell Signalling, Mississauga, Ont) and SHIP^6 by immunoblot analysis. Assay 5) Mouse acute cutaneous anaphylaxis model. 6-8 week old CD1 mice (University of British Columbia Animal Facility, Vancouver, BC) were sensitized to the hapten DNP by cutaneous application of 25 μL of 0.5% dinitrofluorobenzene (DNFB) (Sigma, Oakville, Ont) in acetone to the shaved abdomen of mice for two consecutive days. 24 hrs later, test substances (dissolved in 10 μL of 1:2 DMSO:MeOH) were painted on the right ear while the left ear received vehicle control. 30 min after drug application, DNFB was applied to both ears to induce mast cell degranulation. A 6 mm punch was taken from the ear and immediately frozen on dry ice for subsequent determination of neutrophil myeloperoxidase (MPO) activity. Assay 6) Mouse endotoxemia model. 6-8 week old C57B16 mice (VCHRI Mammalian Model of Human Disease Core Facility, Vancouver, BC) were orally administered the test compound 30 min prior to an IP injection of 2 mg/kg of LPS (E. Coli serotype 0111:B4, Sigma, Oakville, Ont). Blood was drawn 2 hrs later for determination of plasma TNFα by ELISA. Assay 7) In vitro Mulitple Myeloma (MM) assay. The ability of SHIP activators to reduce tumor cell survival was assessed in MM cell lines treated with the test compound. The lines OPM1, OPM2, MM.1S and RPMI 8226 were plated at a density of 1×10^5 cells/mL in 200 μL of medium with various concentrations of the test compound, and viable cell numbers were determined on day 3 and day 5 by trypan blue exclusion. The lines RPMI 8226 and U266 were plated at a density of 1×10^6 cells/mL in 250 μL of medium with various concentrations of the test compound. At day 4, the medium of each culture was replaced by fresh medium containing the same concentration of test compound. […]

[2] = Initial toxicology studies; format: in vivo; conditions: data not shown
Description: A novel paradigm for inhibiting PI3K signaling through activation of the phosphatases that negatively regulate this pathway is provided. SHIP is a particularly good target for immune/hematopoietic disorders because of its restricted expression to hematopoietic cells. Because the relative activity of phosphatases present in a cell will influence the efficacy of kinase inhibitors, as discussed by Knight and Shokat, SHIP agonists may also be used to potentiate the activation of PI3K inhibitors and promote tissue targeting of PI3K inhibitors to the ematopoietic/immune cell compartment.

[3] = test system: 100 protein kinase and phosphatase targets; assay: Profiling against 100 protein kinase and phosphatase targets (SignalChem); format: biochemical; conditions: 2 μM final concentration; changes <25% not considered significant
Description: Compound profiling activity was undertaken using 100 protein kinase and phosphatase targets by SignalChem (Richmond, BC, Canada. www.signalchem.com) against compound Compound 100 (2 μM final concentration). Protein kinase assays were performed in the presence of 50 μM ATP at 30° C. for 15 min. Protein phosphatase activites were determined using pNPP as substrate and were also performed at 37° C. for 15 min. The activity of the enzymes in the presence of Compound 100 was compared to that in the vehicle control and expressed as a % change in activity relative to that observed in the vehicle control. Changes in activity of <25% were not considered significant. Enzymes affected by Compound 100 are plotted in an expanded graph in FIG. 12B.

| Compound | Assay 3: Macrophage NO assay, desired activity (J774.1a macrophage cells) | Assay 5: Mouse acute cutaneous anaphylaxis model, desired activity [1] | Assay 6: Mouse endotoxemia model, desired activity (plasma TNFα) | Assay 7: In vitro Multiple Myeloma (MM) assay, desired activity (MM cell lines) | peripheral blood cell counts and bone marrow progenitor numbers [2] | tolerability [2] | allergen (DNFB)-induced inflammation of the ear ([1]; topically applied, vs vehicle control-treated ear) | LPS-induced plasma/serum TNFα levels (plasma TNFα; oral administration 30 min prior to LPS) | MM proliferation / tumor cell survival, comparison (MM cell lines; OPM1, OPM2, MM.1S, RPMI 8226, U266, trypan blue) | off-target effects on 100 other kinases and phosphatases [3] |
| --- | --- | --- | --- | --- | --- | --- | --- | --- | --- | --- |
| Cc1cc(O)c(O)c2c1[C@]1(C)CCC3C(C)(C)CCC[C@]3(C)[C@H]1C2 (stereo partly shown) [AQX-016A] | + | + | + | + | do not significantly affect | well tolerated | – | – | – | – |
| Cc1cc(O)cc2c1[C@]1(C)CCC3C(C)(C)CCC[C@]3(C)[C@H]1C2 (stereo partly shown) [Compound 100] | + | + | + | + | do not significantly affect | well tolerated | dramatically inhibited allergen-induced inflammation | efficiently inhibited | inhibits MM proliferation at lower concentrations than AQX-016A | minimal off-target effects |
